{
  "source": "patent US7662547B2",
  "about": "“Compositions and methods for detecting and treating HIV infections” (priority 2006, dated 2010)",
  "key": {"IL-2 secretion": {"test_system": "IL-2 secretion", "assay": "IL-2 ELISA of cell culture supernatant after T cell activation", "assay_type": "cell-based, human", "experimental": "IL-2 release into cell culture supernatant was detected by a human IL-2 ELISA development kit (PeproTech, Rocky Hill, N.J.) according to the manufacture's instruction. Briefly, each well of a plate was coated with 100 μl of capture antibody (1 μg/ml) and incubated overnight at room temperature, then washed and blocked with 300 μl of blocking solution for one hour at room temperature. Samples in plates were incubated for 1 hour at 37° C., then washed and incubated with 100 μl of detection antibody (0.5 μg/ml) for 1 hour at 37° C. Plates were washed and incubated with 100 μl of the avidin-peroxidase conjugate (1:2000 dilution) for 30 minutes at room temperature followed by washing and incubation with 100 μl of Tetramethylbenzidine (TMB) substrate buffer. Plates were kinetically read using ELx808 automatic microplate reader (Bio-Tek Instruments, Inc. Winooski, Vt.) at 630 nm."}, "CD4/CXCR4 distribution": {"test_system": "CD4/CXCR4 distribution", "assay": "Confocal microscopy of CD4 and CXCR4 distribution on resting CD4 T cells", "assay_type": "cell-based, human", "details": "120 nM, 2 hours", "description": "Stained cells were imaged using a Zeiss Laser Scanning Microscope (Thornwood, N.Y.), LSM 510 META, with a 40 NA 1.3 or 60 NA 1.4 oil Dic Plan-Neofluar objective. Samples were excited with two laser lines, 488 nm for GFP and 543 nm for Alexa 594. Images were simultaneously recorded in three channels: channel one: fluorescent emissions from 505 to 530 nm for GFP (green); channel two: emissions from 580 to 650 nm for Alexa 594 (red); channel three: DIC. Images were processed and analyzed by the LSM 510 META software.\nFIG. 8 illustrates confocal microscopy of CD4 and CXCR4 distribution on resting CD4 T cells treated with 120 nM Jas. Resting CD4 T cells were treated with 120 nM of Jas for 2 hours, then fixed and stained with a FITC-labeled anti-human CD4 monoclonal antibody and a biotin-labeled anti-human CXCR4 monoclonal antibody followed by Alexa Fluor-594 labeled streptavidin (right panel). Untreated resting CD4 T cells were used as a control (left panel)."}, "HIV-1 [1]": {"test_system": "HIV-1", "assay": "PCR amplification of intracellular viral late DNA (viral entry)", "assay_type": "cell-based, HIV-1NL4-3", "details": "120 nM", "experimental": "To remove plasmid DNA contamination, viral stock was treated with Benzonase (Novagen, Madison, WI) (250 U/ml) at […] for 15 min before infection. Total cellular DNA were purified using SV total RNA isolation kit as recommended by the manufacture (Promega, Madison, WI). For detection of viral late reverse transcription products by PCR, forward primer HIV/Tat-Rev-5’(5′[…] 3′; SEQ ID NO: 6) and reverse primer LTR-gag2 (5′[…] 3′; SEQ ID NO: 7) were used. PCR was carried out in 1× Ambion PCR buffer, 125 μM dNTP, 50 pmol each primer, 1U SuperTaq Plus (Ambion Inc. Austin, TX) with 30 cycles at 94° C. for 20 seconds, 68° C. for 60 seconds. For relative quantification, the cellular-actin pseudogene were co-amplified using QuantumRNA-actin Internal Standards (Ambion Inc. Austin, TX), with a ratio from 5/5 to 1/9 for actin primer/competitor.\nThus, the effect of Jas on T cell activity was determined. FIG. 3A illustrates inhibition of HIV-1 latent infection by Jas. Effects of Jas on LFA-1 activation also were tested. Jas treated or untreated resting T cells were activated by anti-CD3/CD28 bead and stained with human ICAM-1/Fc chimera and analyzed by flow cytometer. The effects of Jas on IL-2 secretion also were measured. […] Cells were treated with Jas for 2 hours, washed, infected with HIV-1 for 5 days, then activated by anti-CD3/CD28 bead. […]"}, "T cells": {"test_system": "T cells", "assay": "Cell cycle analysis of T cells", "assay_type": "cell-based, human"}, "HIV-1 [2]": {"test_system": "HIV-1", "assay": "HIV-1 infection of transformed CEM-SS cells", "assay_type": "cell-based, HIV-1NL4-3", "experimental": "(§1) Thus, the effect of Jas on T cell activity was determined. FIG. 3A illustrates inhibition of HIV-1 latent infection by Jas. Effects of Jas on LFA-1 activation also were tested. Jas treated or untreated resting T cells were activated by anti-CD3/CD28 bead and stained with human ICAM-1/Fc chimera and analyzed by flow cytometer. The effects of Jas on IL-2 secretion also were measured. […] Cells were treated with Jas for 2 hours, washed, infected with HIV-1 for 5 days, then activated by anti-CD3/CD28 bead. […] Following infection, cellular DNA was PCR amplified for viral late DNA and β-actin pseudogene. Cells were pre-activated with PHA plus IL-2, then treated and infected as in FIG. 3A. […] CEM-SS cell were treated and infected as in FIG. 3A. Effects of Jas on HIV-1 infection of resting T cells pre-stimulated with anti-CD4/CXCR4 bead (2 beads/cell) are shown in FIG. 3E. Pre-stimulated cells were treated and infected as in FIG. 3A."}, "HIV-1 [3]": {"test_system": "HIV-1", "assay": "HIV-1 infection of T cells pre-activated with PHA plus IL-2", "assay_type": "cell-based, HIV-1NL4-3", "details": "similar Jas treatment (120 nM)", "experimental": "as §1"}, "F-actin": {"test_system": "F-actin", "assay": "Competitive binding of phalloidin to F-actin", "details": "120 nM"}},
  "data": [
    {"smiles": "C/C1=C\\[C@H](C)C[C@H](C)OC(=O)C[C@H](c2ccc(O)cc2)NC(=O)[C@@H](Cc2c(Br)[nH]c3ccccc23)N(C)C(=O)[C@H](C)NC(=O)[C@@H](C)C1", "note": "[Jas, Jasplakinolide]", "values": [
      {"measurement": "effect on IL-2 secretion", "setting": "IL-2 secretion; 120 nM and below", "result": "no significant effect"},
      {"measurement": "effect on IL-2 expression following T cell activation", "setting": "IL-2 secretion; 600 nM and above", "result": "inhibited IL-2 expression"},
      {"measurement": "CD4/CXCR4 distribution on the surface, treated vs untreated cells", "setting": "CD4/CXCR4 distribution", "result": "did not reveal any significant difference"},
      {"measurement": "intracellular viral DNA, treated vs untreated cells", "setting": "HIV-1 [1]", "result": "did not detect any difference"},
      {"measurement": "cell cycle arrest", "setting": "T cells; 120 nM", "result": "no cell cycle arrest"},
      {"measurement": "cell cycle arrest", "setting": "T cells; 3μM", "result": "arrested cells in S phase"},
      {"measurement": "inhibition of HIV replication in GEM-SS", "setting": "HIV-1 [2]; 3μM", "result": "did inhibit HIV replication"},
      {"measurement": "inhibition of HIV replication in transformed CEM-SS", "setting": "HIV-1 [2]; similar Jas treatment (120 nM)", "result": "no inhibition"},
      {"measurement": "inhibition of HIV replication in pre-activated T cells", "setting": "HIV-1 [3]", "result": "no inhibition"},
      {"measurement": "inhibition of subsequent competitive binding of phalloidin to F-actin", "setting": "F-actin", "result": "significantly inhibited"}
    ]}
  ]
}
